{
  "source": "patent US20230346931A1",
  "about": "“ALTERNATIVE SURFACTANTS AS STABILIZERS FOR THERAPEUTIC PROTEIN FORMULATIONS” (Hoffmann-La Roche Inc., priority 2020, published 2023)",
  "assay_type_in_all_cases": "physicochemical",
  "key": {"[1]": {"system": "mAb 1", "assay": "Protein stability in presence of surfactants after mechanical stresses (shaking, freeze-thaw) and thermal stress, mAb 1", "conditions": "for particle formation upon shaking: 200 rpm, 7 days, 5° C. and 25° C.; for SVP ≥10 μm per container after shaking: criteria of maximum 6,000 particles≥10 μm per container", "experimental": "(§1) Surfactant performance screens were carried out with 0.1 and 1 mg/mL of the surfactant in the formulation of the model mAb described within the Materials section. After compounding the liquid samples were sterile filtered through 0.22 μm Millex Sterivex™ GV (Millipore, Bedford, USA) filter units, filled into 6 mL type 1 glass vials and closed with Ø 20 mm teflon® coated serum stoppers (DAIKYO Seiko Ltd., Tokyo, Japan). The stoppered vials were crimped using an aluminum cap (Infochroma AG, Goldau, Switzerland). The corresponding placebo formulations were equally prepared, formulated and used as respective controls.\nTo evaluate the effects of the surfactants on the mAb's stability the formulations were exposed to various interfacial stress conditions like agitation and various freeze-thaw cycles. Shaking stress was carried by placing the vials horizontally for seven days at 5° C. and 25° C. protected from light within a shaker (HS 260 Control Model; IKA Werke GmbH & Co. KG; Staufen, Germany) at constant 200 rounds per minute (rpm). Freeze-thaw (F/T) stress was performed by exposing the vials to five consecutive cycles of freezing at −20° C. and thawing at 5° C.\n(§2) Thermal stability data was generated by storing the liquid protein formulations for up to 24 months (mo) at 5° C., for 6 months at 25° C./60% relative humidity (rH) and 12 weeks at 40° C./75% rH. Samples were analyzed at initial time point (t0) and after 1 mo, 3 mo, 6 mo, 12 mo, 18 mo and 24 months of storage using the subsequently described analytical methods\nEnhanced visual inspection was performed as previously described using a Seidenader V 90-T machine (Seidenader Maschinenbau GmbH, Markt Schwaben, Germany)[58]. The number of particles were categorized into four classes: class (I) is equivalent to 0 particles, class (II) is equivalent to 1-5 particles, class (III) is equivalent to 6-10 particles and class (IV) is equivalent to >10 particles.\nTurbidity was determined as previously described in literature and according to Ph. Eur. 2.2.1 using a 2100AN turbidimeter (Hach Lange GmbH, Dusseldorf, Germany) calibrated with a StablCal® calibration kit (Hach Lange GmbH). Results were given as Nephelometic Turbidity Units (NTU).\nThe color of the solutions was assessed by means of a LICO 690 Colorimeter (Hach Lange GmbH). Classification was performed according to the color scale described in Ph. Eur. 2.2.2.. Data presented herein show the degree of color change according to color scale values of Ph.Eur. 2.2.2: class (I) is equivalent to color scale values of 9, 8, 7, or colorless; class (II) is equivalent to color scale values of 6 or 5; class (III) is equivalent to color scale values of 4 or 3; and class (IV) is equivalent to color scale values of 2 or 1.\nSub-visible particle (SVP) count was measured by means of light obscuration using a HIAC 9703+ liquid particle counting system (Skan AG, Allschwil, Switzerland) and PharmSpec 3 (Hach Lange GmbH) software. The applied measurement technique was adapted from the method described in Ph.Eur. 2.9.19 [61] and USP <787>[62]. After rinsing the system with sample solution, four runs with a sample volume of 0.2 mL were performed. The final cumulative particle count was obtained by calculating the mean ±SD (standard deviation) from the last three measurements. SVP bigger than or equal to 2, 5, 10 and 25 μm were measured and presented as cumulative counts per mL of solution.\nDetection of soluble mAb aggregates, in the following referred to as high molecular weight species (HMWS), the monomer and the low molecular weight species (LMWs) were analyzed by SE-HPLC. The utilized system comprised an Alliance 2695 HPLC instrument equipped with a 2487 UV detector (both from Waters Corporation, Milford, MA). The autosampler temperature was set to 5° C. and the system was loaded with total 100 μg of the mAb. […]"}, "[2]": {"system": "model mAb", "assay": "Thermal conformational protein stability in presence of surfactants (nanoDSF)", "conditions": "for effect on mAbs' conformational stability: elevated surfactant concentrations; for change of Tm1: surfactant 10 mg/mL; for change in thermal conformational stability properties: already at lower concentrations of 0.1 & mg/mL", "description": "Conformational protein stability was investigated with the Prometheus NT.Plex (NanoTemper Technologies GmbH, München, Germany). The device allows the label-free fluorimetric analysis of the change in intrinsic protein fluorescence from aromatic tryptophan and tyrosine residues by using small quantities of solution. Thermal induced protein unfolding was monitored by detecting the emission shift at 330 nm and 350 nm at a laser power of 5%. The nanoDSF grade standard capillary chips (NanoTemper Technologies, München, Germany) were filled with 10 μL of freshly prepared (t0) formulation containing 25 mg/mL mAb compounded with either 0.01, 0.1, 1 or 10 mg/mL of the specific surfactant. Sodium dodecyl sulfate (SDS) was taken as positive control since the charge as been reported to lead to destabilization of proteins presumably by chare-charge interactions. Samples were heated from 25 to 95° C. with a constant heating ramp of 0.5° C. per minute. The PR.StabilityAnalysis software (NanoTemper Technologies, München, Germany) automatically calculated the onset (Ton) and first transition point (Tm1) temperature of the melting curve. Data reported are the mean value of three individual measurements.\nStability indicating parameters being the onset temperature (Ton) of unfolding and the first melting transition (Tm1) were measured for the model mAb in presence of surfactants at concentrations ranging from 0.01 mg/mL to 10 mg/mL (see FIG. 4)."}, "[3]": {"system": "mAb 1", "assay": "Long-term protein stability (storage at 5° C. and 25° C.), mAb 1", "conditions": "higher concentrations", "experimental": "as §1\nas §2, with “methods […]” for “methods”\nTurbidity was determined as previously described in literature and according to Ph. […]\nThe color of the solutions was assessed by means of a LICO 690 Colorimeter (Hach Lange GmbH). […]\nSub-visible particle (SVP) count was measured by means of light obscuration using a HIAC 9703+ liquid particle counting system (Skan AG, Allschwil, Switzerland) and PharmSpec 3 (Hach Lange GmbH) software. […]"}, "[4]": {"assay": "Surface tension measurement (dynamic surface tension, DST)", "conditions": "mAb formulation at t0", "experimental": "Surface tension measurements were performed by means of liquid handling stations according to a method described by Amrhein et al.[63]. Briefly, the measurement depends on the correlation between drop mass and the surface tension of the sample. For this study a fully automated liquid handling station Freedom 384 EVO 200 (Tecan, Crailsheim, Germany) was equipped with an analytical balance (Mettler Toledo, Columbus, USA). The system contains stainless fixed tips which aspirate the sample with 100 μL·s^−1 from a sealed 1 mL round bottom LoBind® Deepwell Plate (Eppendorf, Hamburg, Germany). The sample was dispensed with 3 μL·s^−1 to a second round bottom Deepwell Plate 96/500 μL (Eppendorf, Hamburg, Germany) mounted on an analytical balance. The weight was recorded continuously using fully automated routines written in Matlab R2017b (MathWorks, Natick, MA, USA). The surface tension of water (72.6 mN/m) was used as a reference for calculations. The mean of three individual measurements of the samples (at t0) is reported as surface tension."}},
  "data": [
    {"compound": "C[C@H](CCC(=O)N(CCCNC(=O)[C@H](O)[C@@H](O)[C@H](O)[C@H](O)CO)CCCNC(=O)[C@H](O)[C@@H](O)[C@H](O)[C@H](O)CO)[C@H]1CC[C@H]2[C@@H]3CC[C@@H]4C[C@H](O)CC[C@]4(C)[C@H]3C[C@H](O)[C@]12C", "note": "[DBC, Deoxy-BigCHAP]", "values": [
      {"measurement": "visible particles initially", "setting": "[1]; 1 mg/mL surfactant", "value": "many particles initially"},
      {"measurement": "particle formation upon shaking", "setting": "[1]", "value": "particle formation particularly after agitation"},
      {"measurement": "SVP ≥10 μm per container after shaking", "setting": "[1]", "value": "exceeded USP <787> criteria"},
      {"measurement": "effect on mAbs' conformational stability", "setting": "[2]", "value": "destabilizing effect"},
      {"measurement": "change of Tm1", "setting": "[2]", "value": "slight decrease"},
      {"measurement": "change of Ton", "setting": "[2]; surfactant 1 and 10 mg/mL", "value": "slight decrease in Ton"},
      {"measurement": "solubility in formulation", "setting": "[3]", "value": "solubility issues"}
    ]},
    {"compound": "CCCCCCCCCC(=O)N(CCO)C[C@H](O)[C@@H](O)[C@H](O)[C@H](O)CO", "note": "[HEGA-10, decanoyl-N-hydroxyethylglucamide]", "values": [
      {"measurement": "effect on mAbs' conformational stability", "setting": "[2]", "value": "destabilizing effect"},
      {"measurement": "change of Tm1", "setting": "[2]", "value": "comparable destabilizing effect"},
      {"measurement": "change of Ton", "setting": "[2]; surfactant 1 and 10 mg/mL", "value": "comparable destabilizing effect"}
    ]},
    {"compound": "CCCCCCCCC(=O)N(C)C[C@H](O)[C@@H](O)[C@H](O)[C@H](O)CO", "note": "[MEGA-9, nonanoyl-N-methylglucamide]", "values": [
      {"measurement": "effect on mAbs' conformational stability", "setting": "[2]", "value": "destabilizing effect"},
      {"measurement": "change of Tm1", "setting": "[2]", "value": "comparable destabilizing effect"},
      {"measurement": "change of Ton", "setting": "[2]; surfactant 1 and 10 mg/mL", "value": "comparable destabilizing effect"}
    ]},
    {"compound": "C[C@H](CCC(=O)NCC(=O)[O-])[C@H]1CC[C@H]2[C@@H]3[C@H](O)C[C@@H]4C[C@H](O)CC[C@]4(C)[C@H]3C[C@H](O)[C@]12C.O.[Na+]", "note": "[NaGC, sodium glycocholate hydrate]", "values": [
      {"measurement": "change in thermal conformational stability properties", "setting": "[2]", "value": "strong decrease in thermal conformational stability properties"}
    ]},
    {"compound": "CCCCCCCCCCCCOS(=O)(=O)[O-].[Na+]", "note": "[SDS, Sodium dodecyl sulfate, reference compound]", "values": [
      {"measurement": "effect on Ton and Tm1 compared to reference formulation without surfactant", "setting": "[2]; surfactant 0.01 to 10 mg/mL", "value": "concentration dependent destabilizing effect"}
    ]},
    {"compound": "Chobimalt", "values": [
      {"measurement": "color after shaking stress", "setting": "[1]", "value": "strong change in color"},
      {"measurement": "stabilizing effect upon F/T studies", "setting": "[1]; 5 freeze-thaw cycles", "value": "missing stabilizing effect at the interface"},
      {"measurement": "particle formation upon shaking", "setting": "[1]", "value": "strongest particle formation upon shaking"},
      {"measurement": "SVP ≥10 μm per container after shaking", "setting": "[1]", "value": "exceeded USP <787> criteria"},
      {"measurement": "effect on mAbs' conformational stability", "setting": "[2]", "value": "no impact"},
      {"measurement": "change of Ton", "setting": "[2]; surfactant 1 mg/mL or higher", "value": "slight increase of Ton"},
      {"measurement": "dynamic surface tension", "setting": "[4]", "value": "around 73 mN/m"}
    ]},
    {"compound": "sodium deoxy cholate [NaDC]", "values": [
      {"measurement": "change in thermal conformational stability properties", "setting": "[2]", "value": "strong decrease in thermal conformational stability properties"}
    ]}
  ]
}
